Source: patent US20220017541A1, “INHIBITORS OF ARGINASE” (Black Belt Tx Ltd, priority 2018, published 2022)

Experiments:
[1] = target: T1, arginase activity in intact BMM-M2 cells (Mus musculus, UniProt Q61176); test: Cell-based arginase assay: urea production by cultured BMM-M2 cells; conditions: 10 μM test compound, 24 h; for inhibition at 10 µM: read-out: Inh. urea production @10 μM (%)
T1 construct: endogenous in cells; host or cells: bone-marrow derived macrophages from male C57BL/6 mice, polarised to M2 with IL-4
T1 sequence (Q61176 1-323): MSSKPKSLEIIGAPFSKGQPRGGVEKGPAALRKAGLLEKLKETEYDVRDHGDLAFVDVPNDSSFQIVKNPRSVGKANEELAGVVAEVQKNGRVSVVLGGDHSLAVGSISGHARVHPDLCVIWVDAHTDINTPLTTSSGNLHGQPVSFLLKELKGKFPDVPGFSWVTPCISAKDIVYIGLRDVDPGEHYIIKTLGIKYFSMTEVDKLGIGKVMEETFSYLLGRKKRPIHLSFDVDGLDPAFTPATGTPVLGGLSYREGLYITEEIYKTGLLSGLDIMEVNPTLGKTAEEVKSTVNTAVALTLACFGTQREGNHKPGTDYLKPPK
Description: Murine bone-marrow derived macrophages (BMM) represent a convenient in vitro model that enables differentiation of these cells towards M1 or M2 macrophages. Briefly, male C57BL/6 mice 7-8 weeks old were euthanized by carbon dioxide asphyxiation. Femur and tibiae bones were removed under aseptic conditions and collected in a plate containing sterile ice-cold PBS 1×. After sterilization of bones in 70% ethanol during 1 min, bones were placed into a clean Petri dish containing fresh sterile ice-cold PBS 1×. The ends of each bone were cut and the marrow cavity was flushed using forceps and syringes filled with pre-warmed complete α-MEM growing medium (α-MEM without red phenol (Life Technologies, Cat. No. #41061-029) supplemented with 10% FBS, penicillin and streptomycin). Bone marrow (BM) cells were harvested in a 15 ml clean tube and centrifuged at 400 g for 8 min at RT. Supernatant was discarded and BM pellet was re-suspended in 5 ml Ammonium-Chloride-Potassium (ACK) buffer for 5 minutes at RT to lysis RBC. BM cell suspension was centrifuged at 400 g for 8 min at RT. Supernatant was discarded and BM cell pellet was re-suspended in complete α-MEM growing medium and passed through a 70 μm cell restrainer to eliminate solid contaminates and cellular aggregates. BM cells were seeded in 8 ml of complete α-MEM growing medium supplemented with 100 ng/ml recombinant mouse M-CSF (R&D Systems, Cat. No. #416-ML-050) in 100-mm dishes. BM cells were cultured overnight to get rid of contaminating stromal cells in a humidified incubator with 5% CO2 at 37° C. At the following day, non-adherent cells were collected in a clean 15-ml tube and centrifuged at 400 g for 8 min at RT. Cell pellet was re-suspended in complete α-MEM growing medium and counted using a hemocytometer Neubauer's chamber. Hematopoietic precursor cells were differentiated into BMM in presence of complete α-MEM growing medium supplemented 50 ng/ml M-CSF for 3 days. Finally to polarize BMM towards M2 phenotype, cells were incubated in presence 20 ng/ml of recombinant mouse IL-4 (R&D Systems, Cat. No. #404-ML-010) added to fresh complete α-MEM growing medium supplemented 50 ng/ml M-CSF for 24 h.
At the day of the experiment, BMM-M2 were treated for 24 h with vehicle (DMSO) or compounds of the invention at 1 and 10 μM prepared in fresh complete α-MEM growing medium supplemented 50 ng/ml M-CSF, 20 ng/ml IL-4 and 10 mM L-arginine (Cat. No. #A5006, Sigma Aldrich). At the next day, 70 μl aliquots of each treated culture media (supernatants) were transferred into a clear 96-well plate. Measurements of urea produced by BMM-M2 were performed using the adapted protocol detailed in Example B1. Wells without BMM-M2 containing only treatment media (vehicle) were used to determine the zero cell-derived urea production (blank). All treatments were carried out in triplicates.
(§1) The inhibition of urea production was calculated subtracting the absorbance from the blank to the absorbance from all treatments and it was expressed as the percentage of the absorbance from the reaction containing the test article treatment with respect to the absorbance from vehicle treatment (maximum of urea production).

recombinant human ARG1 = target: T2, recombinant human ARG1 (Homo sapiens, UniProt P05089); test: Arginase enzymatic assay in vitro, recombinant human ARG1 (colorimetric urea detection); type: biochemical; conditions: recombinant human arginase 1; read-out: IC50 Inh rhARG1
T2 construct: purchased R&D System 5868-AR-010
T2 sequence (P05089 1-322): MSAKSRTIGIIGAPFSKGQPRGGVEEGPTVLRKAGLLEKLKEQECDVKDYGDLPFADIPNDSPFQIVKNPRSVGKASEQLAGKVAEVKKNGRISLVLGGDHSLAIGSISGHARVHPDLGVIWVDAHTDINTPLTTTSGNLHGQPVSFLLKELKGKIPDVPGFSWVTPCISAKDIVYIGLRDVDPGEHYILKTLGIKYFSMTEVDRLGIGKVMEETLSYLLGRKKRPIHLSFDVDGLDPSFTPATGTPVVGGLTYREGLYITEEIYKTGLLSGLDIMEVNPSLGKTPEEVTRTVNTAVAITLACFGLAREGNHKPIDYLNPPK
Source text: (§2) Arginase catalyzes the hydrolysis of L-arginine into L-ornithine and urea. Urea amount produced by this reaction can be detected using a colorimetric assay and used as an indirect measurement of arginase activity. An adapted protocol from (Baggio, R., et al., J Pharmacol Exp Ther, 1999. 290(3): p. 1409-16) was used for the testing the ability of exemplary compounds of the invention to inhibit arginase enzymes from a variety of sources including recombinant human ARG1 and 2, lysates of human red blood cells (RBC) and intact murine macrophages, as described below.
(§3) Compounds of the invention were prepared from powder as 10 mM stock solutions in DMSO and stored in presence of N2 neutral atmosphere at −80° C. For IC50 determination and just before the assay, exemplary compounds were successively diluted to get the following concentrations: 210, 70, 21, 7, 2.1, 0.7, 0.21, 0.07, 0.021, 0.007, 0.0021 and 0.0007 μM (i.e., final concentrations in the wells of 30, 10, 3, 1, 0.3, 0.1, 0.03, 0.01, 0.003, 0.001, 0.0003, 0.0001 μM).
(§4) Assays were run in clear flat bottom 96-well plates (Nunclon, Cat. No. #167008) adding in each well the following solutions in this order: (1) 10 μl of Tris-HCl solution supplemented with 0.1% bovine serum albumin (BSA) containing 1.563 μg/ml recombinant human ARG1 (R&D System, Cat. No. #5868-AR-010), (2) 30 μl of Tris-HCl buffer containing 10 mM MnCl2 and (3) 10 μL of a pre-dilution of each test article or DMSO (vehicle). Compounds were allowed to interact with the enzyme-cofactor complex pre-incubating the plate at 37° C. for 30 min. To start the reaction, 20 μl of 50 mM L-arginine (Sigma Aldrich Cat. #A5006-100G) were added to each well in exception of the blank reaction (see below). All reactions were allowed to happen for 1 h at 37° C. To detect the urea production, reactions were stopped by adding 200 μl of a mixture of reagent A (4 mM o-phthalaldehyde in 50 mM Boric Acid, 1 M Sulfuric Acid, 0.03% Brij-35 (w/v)) and reagent B (4 mM N-(1-naphthyl)ethylenediamine in 50 mM Boric Acid, 1 M Sulfuric Acid, 0.03% Brij-35 (w/v)) in equal proportion. Color product was developed for 1 h at room temperature (RT) protected from light and then absorbance at 520 nm was measured using a Multifunction Microplate Reader (Synergy 4, Bioteck). Blank reactions were carried out by adding the L-arginine substrate only after the addition of mixture A-B. All reactions were carried out in duplicates.
as §1, with “blank reaction (zero enzymatic urea production)” for “blank”, “reactions” for “treatments”, “article” for “article treatment”, “reaction” for “treatment”

recombinant human ARG2 = target: T3, recombinant human ARG2 (Homo sapiens, UniProt P78540); test: Arginase enzymatic assay in vitro, recombinant human ARG2 (colorimetric urea detection); type: biochemical; conditions: recombinant human arginase 2; read-out: IC50 Inh rhARG2
T3 construct: purchased BPS Bioscience 71659
T3 sequence (P78540 23-354): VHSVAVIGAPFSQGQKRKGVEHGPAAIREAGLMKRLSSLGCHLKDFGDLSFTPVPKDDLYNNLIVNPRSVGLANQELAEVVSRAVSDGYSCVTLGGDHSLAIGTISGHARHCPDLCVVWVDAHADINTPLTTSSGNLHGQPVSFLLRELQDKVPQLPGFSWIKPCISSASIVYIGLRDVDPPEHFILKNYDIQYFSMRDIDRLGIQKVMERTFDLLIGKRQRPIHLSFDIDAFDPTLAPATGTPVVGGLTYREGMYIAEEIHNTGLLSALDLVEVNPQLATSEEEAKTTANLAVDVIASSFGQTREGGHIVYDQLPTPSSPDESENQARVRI
Source text: as §2, §3, §4
as §1, with “blank reaction (zero enzymatic urea production)” for “blank”, “reactions” for “treatments”, “article” for “article treatment”, “reaction” for “treatment”
For testing inhibitory activity over recombinant human arginase II, 10 μl of Tris-HCl solution supplemented with 0.1% BSA containing 1.5 μg/ml recombinant human ARG2 (BPS Bioscience, Cat. No. #71659) was used instead of ARG1.

NC(CCCCB(O)O)(C(=O)O)C1CCN(C2CCc3ccc(F)cc32)CC1 (single isomer, unassigned) [Compound 88, 2-amino-6-borono-2-(1-(6-fluoro-2,3-dihydro-1H-inden-1-yl)piperidin-4-yl)hexanoic acid]
inhibition at 10 µM [1]: > 25%
IC50 (recombinant human ARG1): < 500 nM
IC50 (recombinant human ARG2): < 500 nM

NC(CCCCB(O)O)(C(=O)O)C1CCN(C2CCCc3ccccc32)CC1 (single isomer, unassigned) [Compound 7, 2-amino-6-borono-2-(1-(1,2,3,4-tetrahydronaphthalen-1-yl)piperidin-4-yl)hexanoic acid]
IC50 (recombinant human ARG1): < 500 nM
IC50 (recombinant human ARG2): 500 to 5000 nM

NC(CCCCB(O)O)(C(=O)O)C1CCN(C2Cc3ccccc3C2)CC1 (stereo not shown) [Compound 23, 2-amino-6-borono-2-(1-(2,3-dihydro-1H-inden-2-yl)piperidin-4-yl)hexanoic acid]
IC50 (recombinant human ARG1): > 5000 nM
IC50 (recombinant human ARG2): > 5000 nM

NC(CCCCB(O)O)(C(=O)O)C1CCN(C2CCc3cc(F)c(F)cc32)CC1 (single isomer, unassigned) [Compound 19, 2-amino-6-borono-2-[1-(5,6-difluoroindan-1-yl)-4-piperidyl]hexanoic acid]
Inh. urea production @10 μM (%) [1]: ++ (25% < % inhibition < 15% at 10 μM test compound)
IC50 (recombinant human ARG1): < 500 nM
IC50 (recombinant human ARG2): < 500 nM

NC(CCCCB(O)O)(C(=O)O)C1CCN(C2CCc3ccc(C(F)(F)F)cc32)CC1 (single isomer, unassigned) [Compound 35, 2-amino-6-borono-2-[1-[6-(trifluoromethyl)indan-1-yl]-4-piperidyl]hexanoic acid]
inhibition at 10 µM [1]: < 15%
IC50 (recombinant human ARG1): < 500 nM
IC50 (recombinant human ARG2): < 500 nM

NC(CCCCB(O)O)(C(=O)O)C1CCN(C2Cc3ccccc3C2)CC1 (single isomer, unassigned) [Compound 24, 2-amino-6-borono-2-(1-(2,3-dihydro-1H-inden-2-yl)piperidin-4-yl)hexanoic acid]
Inh. urea production @10 μM (%) [1]: ++ (25% < % inhibition < 15% at 10 μM test compound)
IC50 (recombinant human ARG1): 500 to 5000 nM
IC50 (recombinant human ARG2): 500 to 5000 nM

CC(c1ccc(F)c(Cl)c1)N1CCC(C(N)(CCCCB(O)O)C(=O)O)CC1 (single isomer, unassigned) [Compound 89, 2-amino-6-borono-2-(1-(1-(3-chloro-4-fluorophenyl)ethyl)piperidin-4-yl)hexanoic acid]
Inh. urea production @10 μM (%) [1]: ++ (25% < % inhibition < 15% at 10 μM test compound)
IC50 (recombinant human ARG1): < 500 nM
IC50 (recombinant human ARG2): 500 to 5000 nM

CC(c1c(Cl)cccc1Cl)N1CCC(C(N)(CCCCB(O)O)C(=O)O)CC1 (single isomer, unassigned) [Compound 91, 2-amino-6-borono-2-(1-(1-(2,6-dichlorophenyl)ethyl)piperidin-4-yl)hexanoic acid]
inhibition at 10 µM [1]: > 25%
IC50 (recombinant human ARG1): < 500 nM
IC50 (recombinant human ARG2): 500 to 5000 nM

CC(c1c(F)cccc1F)N1CCC(C(N)(CCCCB(O)O)C(=O)O)CC1 (single isomer, unassigned) [Compound 92, 2-amino-6-borono-2-(1-(1-(2,6-difluorophenyl)ethyl)piperidin-4-yl)hexanoic acid]
inhibition at 10 µM [1]: < 15%
IC50 (recombinant human ARG1): 500 to 5000 nM
IC50 (recombinant human ARG2): 500 to 5000 nM

CCCC(c1ccccc1)N1CCC(C(N)(CCCCB(O)O)C(=O)O)CC1 (single isomer, unassigned) [Compound 90, 2-amino-6-borono-2-[1-(1-phenylbutyl)-4-piperidyl]hexanoic acid]
IC50 (recombinant human ARG1): 500 to 5000 nM
IC50 (recombinant human ARG2): 500 to 5000 nM

NC(CCCCB(O)O)(C(=O)O)C1CCN(C2Cc3ccccc3C2)CC1 (single isomer, unassigned) [Compound 25, 2-amino-6-borono-2-(1-(2,3-dihydro-1H-inden-2-yl)piperidin-4-yl)hexanoic acid]
IC50 (recombinant human ARG1): > 5000 nM
IC50 (recombinant human ARG2): > 5000 nM

NC(CCCCB(O)O)(C(=O)O)C1CCN(C2CCCc3ccccc32)CC1 (single isomer, unassigned) [Compound 8, 2-amino-6-borono-2-(1-(1,2,3,4-tetrahydronaphthalen-1-yl)piperidin-4-yl)hexanoic acid]
IC50 (recombinant human ARG1): < 500 nM
IC50 (recombinant human ARG2): < 500 nM
